Results on three compounds are retold here after patent US20240226056A1, “Sleep or Post-Sleep Performance” (Vanda Pharmaceuticals Inc., priority 2018, published 2024).

For series [1] the following is noted: from prescribing information; cited from earlier work.
A short description of series [2]: Tasimelteon jet lag disorder (JLD) clinical program. As to conditions: individuals experiencing circadian advances of five to eight hours. It counts as in vivo, human.
For series [3] the following is noted: preclinical models of acute phase-shifting and chronic re-entrainment; cited from earlier work.
For series [4] the following is noted: 10 mg, 20 mg, 50 mg and 100 mg daily doses; 5-hour advance in sleep-wake cycle; cited from earlier work.
A short description of series [5]: Next-day driving performance on the CRCDS automobile driving simulator after a bedtime dose. It counts as in vivo, human. As to conditions: bedtime dose tasimelteon 20 mg or zopiclone 7.5 mg. As to the method:
In this study, 48 healthy volunteers operate an automobile driving simulator the moming after being administered a bedtime dose of tasimelteon 20 mg, zopiclone 7.5 mg, or placebo. Volunteers are instructed to operate the driving simulator for about one hour with a speed of 55 mph while maintaining lane position.
Driving performance is assessed by a number of validated measures, including standard deviation from lateral position (SDLP), a measure of lane weaving.
An SDLP of 4.4 cm as compared to control is considered equivalent to the driving impairment associated with a blood alcohol content (BAC) of 0.05%, the threshold for drunk driving in many countries.

“Also recorded” adds a separate entry of the source.

Turning to `Cc1ccc(-n2nccn2)c(C(=O)N2CCN(c3nc4cc(Cl)ccc4o3)CC[C@H]2C)c1` [BELSOMRA], the “driving performance in clinical studies (in words)” value in series [1] was “clinically meaningful impaired driving performance in some subjects”.

With `CCC(=O)NC[C@@H]1C[C@H]1c1cccc2c1CCO2` [tasimelteon], the “benefit in jet lag disorder (in words)” value in series [2] is listed as “significant benefits”. In series [3], the “chronobiotic activity (in words)” value was “potent chronobiotic activity”. The “shifting dim light melatonin onset and sleep efficacy relative to placebo (in words)” value in series [4] is “positive outcomes”.

`CN1CCN(C(=O)OC2c3nccnc3C(=O)N2c2ccc(Cl)cn2)CC1` (stereo not drawn) [zopiclone]: in series [5] (48 healthy volunteers, driving simulator 9 hours post-dose, about one hour at 55 mph), the “SDLP Difference (least squares means) vs Placebo” value is 4.14 cm. The “next-day driving impairment compared to placebo (in words)” value in series [5] (evaluated nine hours after dosing) was “does significantly impair driving ability; also recorded: meaningful and significant effect on lane weaving”.
